The record followed here is US6562954B1, “Method for producing oligosaccharide, and novel oligosaccharide and pharmaceutical composition containing the same” (Seikagaku Corporation, priority 1999, dated 2003).

Data set [1] has as its system guinea pig neutrophils. Put plainly: Effect on O2− generation by guinea pig neutrophils induced by FMLP stimulation. The format is cell-based. The conditions noted are these: for relative inhibition rate to the control of O2− generation: 1 mg/ml, preincubation 37° C. 1 hour; for suppression of O2− generation by neutrophils (in words): 0.01 to 1 mg/ml. The procedure: A 0.2% aqueous solution of glycogen in physiological saline was autoclaved, and 20 ml of the solution was intraperitoneally administered to a Hartley female guinea pig. The animal was killed by exsanguination 16 hours later, 20 ml of physiological saline containing 10 U/ml of heparin was injected into the abdominal cavity, and the peritoneal exudate was collected. The exudate was centrifuged at 1000 rpm for 10 minutes on a desk-top centrifugal machine, and purified water was added to the precipitate to cause hemolysis for 30 seconds. The solution was made isotonic again with Hank's balanced salt solution at 2-fold concentration, and centrifuged at 1000 rpm for 10 minutes. A procedure of resuspension of the precipitates in the Hank's balanced salt solution and centrifugation was repeated twice to obtain neutrophils. The obtained guinea pig neutrophils were suspended in Hank's balanced salt solution, and the leukocyte number was counted by a blood cell counter (Sysmex K-2000). A suspension diluted with Hank's balanced salt solution to 2×10^6 cells/ml was used for the experiment as a cell suspension.
1 ml of the-cell suspension and 10 μl of a solution of test substance at a known concentration (in a control, keratan sulfate oligosaccharide was not added) were mixed, preincubated at 37° C. for 1 hour, and 50 μl of 1.6 mM cytochrome C solution and 100 μl of 0.1 mM FMLP solution were successively added thereto and mixed. The mixture was incubated at 37° C. for 10 minutes, and the reaction was stopped by cooling with ice. The reaction mixture was centrifuged at 3000 rpm for 5 minutes, and absorbance of the supernatant was measured at a wavelength of 550 nm. All of the aforementioned procedures except for the incubation were performed with ice cooling.

The subject of data set [2] is normal mice. The format is in vivo. The conditions noted are these: for body weight thereafter: all mice, 2,000 mg/kg i.v. once, after the next day up to 14 days; for body weight on the next day of the administration: male mice, 2,000 mg/kg i.v. once; for general condition immediately after the administration: mice, 2,000 mg/kg i.v. once; for death: mice, male and female groups, 2,000 mg/kg i.v. once, observed 14 days. The procedure:
From the above results, the least fatal dose of K4 and G4L4 for single intravenous administration is considered to be 2,000 mg/kg or higher. Therefore, LD50 of K4 and G4L4 for single intravenous administration exceeds 2,000 mg/kg for both of male and female mice.

Data set [3] has as its system Guinea pigs. Put plainly: Test for antigenicity in guinea pigs (active systemic anaphylaxis). As to conditions: sensitized s.c., induced i.v. The format is in vivo. The procedure:
Guinea pigs were sensitized by 3 times of subcutaneous administration of K4 or G4L4 alone or an emulsion of K4 with an immunostimulant, Freund's complete adjuvant (FCA). K4 or G4L4 was intravenously administered to the animals 12 days after the final sensitization to induce active systemic anaphylaxis. As a positive control, a similar test was performed for ovalbumin (OVA).
The results of the above test were shown in Table 1 together with the doses of the test substances. […] From the above results, K4 and G4L4 are not considered to induce active systemic anaphylaxis in guinea pigs.

For the molecule `CC(=O)N[C@@H]1[C@@H](O)[C@H](O[C@@H]2O[C@H](COS(=O)(=O)[O-])[C@H](O)[C@H](O[C@@H]3O[C@H](COS(=O)(=O)[O-])[C@@H](O)[C@H](O)[C@H]3NC(C)=O)[C@H]2O)[C@@H](COS(=O)(=O)[O-])O[C@H]1O.[Na+].[Na+].[Na+]` [Compound G4L4, O-(2-Acetamido-2-deoxy-6-O-sulfo-β-D-glucopyranosyl)-(1→3)-O-(6-O-sulfo-β-D-galactopyranosyl)-(1→4)-O-2-acetamido-2-deoxy-6-O-sulfo-β-D-glucopyranose Trisodium Salt], in data set [1], the “relative inhibition rate to the control of O2− generation” value (“relative inhibition rate to the control” below) worked out at 57.1% and the “suppression of O2− generation by neutrophils (in words)” value (shortened to “suppression of O2− generation”) is recorded as “markedly suppressed”. In data set [2], the body weight thereafter entry is reported as “favorable body weight increase”, the “body weight on the next day of the administration” value is reported as “slight weight loss”, the “general condition immediately after the administration” value was “paralytic gait was observed for every mouse” and the death entry was “No death was observed”. In data set [3], the “anaphylatic reaction after induction” value is “No anaphylatic reaction was observed”.
Take `CC(=O)N[C@H]1[C@H](O[C@@H]2[C@@H](O)[C@H](O)O[C@H](COS(=O)(=O)[O-])[C@@H]2O)O[C@H](COS(=O)(=O)[O-])[C@@H](O)[C@@H]1O.[Na+].[Na+]` [Compound K4, O-(2-Acetamido-2-deoxy-6-O-sulfo-β-D-glucopyranosyl)-(1→3)-O-6-O-sulfo-β-D-galactopyranose Disodium Salt]: in data set [1], the “relative inhibition rate to the control” value is on record as 44.7% and the “suppression of O2− generation” value is listed as “markedly suppressed”. Moreover, in data set [2], the body weight thereafter entry is “favorable body weight increase”, the “body weight on the next day of the administration” value is on record as “slight weight loss”, the “general condition immediately after the administration” value is recorded as “paralytic gait was observed for every mouse” and the death result is “No death was observed”. In addition, the “anaphylatic reaction after induction” value in data set [3] was “No anaphylatic reaction was observed”.
Regarding `CC(=O)NC1C(O)OC(COS(=O)(=O)[O-])C(OC2OC(COS(=O)(=O)[O-])C(O)C(OC3OC(COS(=O)(=O)[O-])C(OC4OC(COS(=O)(=O)[O-])C(O)C(O)C4O)C(O)C3NC(C)=O)C2O)C1O.[Na+].[Na+].[Na+].[Na+]` (centres unmarked) [Compound L4L4, reference compound], in data set [1], the “relative inhibition rate to the control” value came out at 50.6% and the “suppression of O2− generation” value is “markedly suppressed”.

B1: OVA: ovalbumin, positive control in the antigenicity test (protein, UniProt P01012 2-386, looked up)
Ovalbumin: GSIGAASMEFCFDVFKELKVHHANENIFYCPIAIMSALAMVYLGAKDSTRTQINKVVRFDKLPGFGDSIEAQCGTSVNVHSSLRDILNQITKPNDVYSFSLASRLYAEERYPILPEYLQCVKELYRGGLEPINFQTAADQARELINSWVESQTNGIIRNVLQPSSVDSQTAMVLVNAIVFKGLWEKAFKDEDTQAMPFRVTEQESKPVQMMYQIGLFRVASMASEKMKILELPFASGTMSMLVLLPDEVSGLEQLESIINFEKLTEWTSSNVMEERKIKVYLPRMKMEEKYNLTSVLMAMGITDVFSSSANLSGISSAESLKISQAVHAAHAEINEAGREVVGSAEAGVDAASVSEEFRADHPFLFCIKHIATNAVLFFGRCVSP
Turning to B1, in data set [3], the “anaphylatic reaction after induction” value is on record as “showed anaphylatic reaction”.
